Assay results from the supplement of paper PMC4862054.

Columns and labels:
Conditions in all cases: 72 h
BT-549 = system: BT-549
Method in brief: (§1)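 A 20 µl suspension of breast cancer cells was placed in 384-well plates that already contained compound at 5 concentrations in 10-fold steps across a compound-specific 10,000-fold range, and the plates were left for 72 h. CellTox Green fluorescence at 485/520 nm gave cell death, and CellTiter-Glo luminescence, read after 10 min at room temperature, gave viability. Each plate was normalised to 0.1 % DMSO and a positive kill control. EC50 was fitted from the curves and censored at the top concentration.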

HCC1937 [1] = system: HCC1937
Method in brief: as §1

HCC1143 = system: HCC1143
Method in brief: (§2)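 EC50 is the value from a fitted percent-inhibition dose-response curve, censored at the highest concentration, and rows with zero drug sensitivity score were not kept. The underlying assay seeded breast cancer cell lines in 20 µl onto 384-well plates pre-loaded with compound in 5 µl medium for 72 h. Viability was then read by CellTiter-Blue fluorescence at 560/590 nm after 2 h at 37 °C, with each plate normalised to vehicle and a positive kill control.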

HCC1599 = system: HCC1599
Method in brief: as §2

HCC1937 [2] = system: HCC1937; remark: listed apart in the source
Description: (§3)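 Drug sensitivity and resistance testing (DSRT) of breast cancer cell lines in 384-well plates, 5 concentrations in 10-fold dilutions over a compound-specific 10,000-fold range. After 72 h, cytotoxicity was read by CellTox Green fluorescence and viability by CellTiter-Glo luminescence (multiplexed), normalised to DMSO and benzethonium chloride controls. EC50 is the inflection point of the fitted dose-response curve (bottom asymptote free, so it can be relative for partial curves) and is censored at the highest tested concentration. Rows with DSS 0 (no meaningful response) were excluded.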

BT-474 = system: BT-474
Description: as §3

MCF-10A = system: MCF-10A
Description: as §3

MDA-MB-436 = system: MDA-MB-436
Description: as §3

MDA-MB-468 = system: MDA-MB-468
Description: as §3

CAL-148 [3] = system: CAL-148
Method in brief: as §2

CAL-120 = system: CAL-120
Description: as §3

CAL-85-1 = system: CAL-85-1
Description: as §3

Hs578T = system: Hs578T
Description: as §3

CAL-148 [4] = system: CAL-148; remark: listed apart in the source
Description: as §3

DU-4475 = system: DU-4475
Description: as §3

MFM-223 = system: MFM-223
Description: as §3

SMILES | EC50, CellTiter-Glo (BT-549) | EC50, CellTiter-Glo (HCC1937 [1]) | EC50, CellTiter-Blue viability (HCC1143) | EC50, CellTiter-Blue viability (HCC1599) | EC50, CellTox Green (HCC1937 [2]) | EC50, CellTox Green (BT-474) | EC50, CellTox Green (MCF-10A) | EC50, CellTox Green (MDA-MB-436) | EC50, CellTox Green (MDA-MB-468) | EC50, CellTiter-Blue viability (CAL-148 [3]) | EC50, CellTox Green (CAL-120) | EC50, CellTox Green (CAL-85-1) | EC50, CellTox Green (Hs578T) | EC50, CellTox Green (CAL-148 [4]) | EC50, CellTox Green (DU-4475) | EC50, CellTox Green (MFM-223)
CNC(=O)c1cc(Oc2ccc(NC(=O)Nc3ccc(Cl)c(C(F)(F)F)c3)c(F)c2)ccn1 [Regorafenib] | 9.05 µM | > 10 µM | 0.00384 µM | 7.36 µM | 4.88 µM |  |  |  |  |  |  |  |  |  |  | 
COC(=O)c1ccc2c(c1)NC(=O)/C2=C(\Nc1ccc(N(C)C(=O)CN2CCN(C)CC2)cc1)c1ccccc1 [Nintedanib] | 1.91 µM | 4.83 µM |  |  | 1.65 µM | 2.54 µM | 7.35 µM | 8.83 µM | 5.88 µM |  |  |  |  |  |  | 
CC(C)C[C@@H](C(=O)N[C@H](C(=O)OC1CCCC1)c1ccccc1)[C@H](O)C(=O)NO [Tosedostat] | 0.125 µM | 0.0813 µM | 0.189 µM |  |  | 1.56 µM |  | 0.00914 µM | 0.151 µM | 2.75 µM | 0.163 µM | 0.14 µM | > 10 µM |  |  | 
COc1cc2/c(=N/c3ccc(Br)cc3F)nc[nH]c2cc1OCC1CCN(C)CC1 [Vandetanib] |  |  | > 10 µM |  |  |  |  |  |  |  |  |  |  |  |  | 
Cc1cc(Nc2cc(CN3CCOCC3)c3nc(C)c(Cc4ccc(Cl)cc4F)n3n2)n[nH]1 [Gandotinib] | 2.51 µM | 2.53 µM |  |  |  |  |  | 0.241 µM | 4.5 µM |  |  | 6.59 µM | 2.04 µM |  |  | 
Nc1cc(C(F)(F)F)c(-c2cc(N3CCOCC3)nc(N3CCOCC3)n2)cn1 [Buparlisib] | 2.36 µM | 6.15 µM |  |  |  | 5.17 µM | 8.43 µM |  |  |  |  |  | 5.58 µM |  |  | 
CCOC(=O)CCNc1cc(N2CCc3ccccc3CC2)nc(-c2ccccn2)n1 [GSK-J4] | 1 µM | 8.34 µM |  |  | 24.1 µM | 2.59 µM | 18.1 µM | 21.2 µM | 8.14 µM |  | 20 µM | 4.08 µM | 2.28 µM | 10.9 µM | 5.92 µM | 17.4 µM
Cc1ccc(NC(=O)c2ccc(CN3CCN(C)CC3)cc2)cc1Nc1nc(-c2cccnc2)cs1 [Masitinib] | 1.88 µM | > 10 µM |  |  |  |  |  |  | 7.16 µM |  |  |  |  |  |  | 
O=C(Nc1cccnc1)N1CCC(Cc2cccc(Oc3ccc(C(F)(F)F)cn3)c2)CC1 [PF-3845] | 3.07 µM |  |  |  |  |  |  |  |  |  |  |  |  |  |  | 
N#Cc1ccc(COC[C@H]2O[C@@H](n3c(NCc4ccc(Cl)c(Cl)c4)nc4c(N)ncnc43)[C@H](O)[C@@H]2O)cc1 | 1.52 µM | > 10 µM |  | 1.35 µM |  |  |  |  |  |  |  |  |  |  |  | 1 µM
COc1cc2c(NC3CCN(C(C)C)CC3)nc(N3CCC(F)(F)CC3)nc2cc1OCCCN1CCCC1 [UNC0642] |  | > 10 µM |  |  | 7.07 µM | 2.68 µM | 4.92 µM | 0.0209 µM | 3.39 µM |  |  | 2.49 µM |  | 8.4 µM |  | 
CNC(=O)c1cccc(-c2ccc3c(N4CCOC[C@@H]4C)nc(N4CCOC[C@@H]4C)nc3n2)c1 [AZD2014] | 0.228 µM | 0.285 µM |  |  |  |  |  |  |  |  |  |  |  | 0.13 µM |  | > 10 µM
COc1cc(O)c2c(c1)/C=C/C[C@H](O)[C@H](O)C(=O)/C=C\C[C@H](C)OC2=O [(5Z)-7-Oxozeaenol] | 0.548 µM | 4.06 µM |  |  | 0.305 µM | 4.93 µM |  |  |  |  |  | 0.0665 µM | 0.253 µM | 0.0758 µM | 0.759 µM | 0.277 µM
O=C(/C=C/c1cccc(S(=O)(=O)Nc2ccccc2)c1)NO [Belinostat] | 1.01 µM | 2.18 µM | 0.971 µM | 0.348 µM |  | 1.6 µM | 0.0304 µM |  | 3.69 µM | 0.322 µM | 1.41 µM | 1.01 µM | 1.26 µM | 1.07 µM | 0.519 µM | 0.745 µM
